Reference: PubChem BioAssay AID278 (DTP/NCI, 2004)
“And” between values parts separate entries of the source, which are not always exact repeats. Identical values can stand only once. Results filed as inconclusive are left out.

Test system: nude mice, A549 intrarenal xenograft, tumor weight change
Assay: NCI In Vivo Anticancer Drug Screen. Data for tumor model A549 Human Adenocarcinoma of Lung with characteristics of Type II Alveolar Epithelial cells (intrarenal inoculation) in NU/NU BALB/C (nude) mice
Details: endpoint: mean tumor weight change, schedule: Q04DX003 (ip), higher = larger tumour
Summary of the method: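 Mice bearing transplantable tumors were treated and survival or tumor size recorded. Values are given as treated-group measurement divided by vehicle-control measurement (T/C).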

[1] = dose: 37.5 mg/kg/injection, vehicle: saline with Tween-80
[2] = dose: 150.0 mg/kg/injection, vehicle: saline with Tween-80
[3] = dose: 300.0 mg/kg/injection, vehicle: saline with Tween-80
[4] = dose: 25.0 mg/kg/injection, vehicle: saline
[5] = dose: 50.0 mg/kg/injection, vehicle: saline
[6] = dose: 25.0 mg/kg/injection, vehicle: saline with Tween-80
[7] = dose: 50.0 mg/kg/injection, vehicle: saline with Tween-80
[8] = dose: 37.5 mg/kg/injection, vehicle: water
[9] = dose: 75.0 mg/kg/injection, vehicle: saline with Tween-80
[10] = dose: 100.0 mg/kg/injection, vehicle: saline with Tween-80
[11] = dose: 200.0 mg/kg/injection, vehicle: saline with Tween-80
[12] = dose: 25.0 mg/kg/injection, vehicle: DMSO

Cc1c2ccccc2c(C)c2c1cc(C(=O)O)c1ccccc12
T/C [1]: 150 % of control | T/C [2]: 113 % of control | T/C [3]: 85 % of control

Nc1nc(Br)nc2c1ncn2C1CC(O)C(CO)O1 (stereo not drawn)
T/C [4]: 92 % of control | T/C [5]: 121 % of control | T/C (dose: 100.0 mg/kg/injection, vehicle: saline): 96 % of control | T/C (dose: 200.0 mg/kg/injection, vehicle: saline): 74 % of control

Oc1c(Cl)cc(Cl)cc1C=NCCSc1ccc(Cl)cc1
T/C (dose: 150.0 mg/kg/injection, vehicle: Klucel (hydroxypropylcellulose) (HPC)): 90 % of control | T/C (dose: 300.0 mg/kg/injection, vehicle: Klucel (hydroxypropylcellulose) (HPC)): 100 % of control | T/C (dose: 600.0 mg/kg/injection, vehicle: Klucel (hydroxypropylcellulose) (HPC)): 83 % of control

O=S(=O)(CCCCl)SCCCCl
T/C (dose: 40.0 mg/kg/injection, vehicle: suspension in saline): 81 % of control | T/C (dose: 80.0 mg/kg/injection, vehicle: suspension in saline): 86 % of control | T/C (dose: 160.0 mg/kg/injection, vehicle: suspension in saline): 105 % of control | T/C (dose: 320.0 mg/kg/injection, vehicle: suspension in saline): 112 % of control

CC(O)C1(O)C(O)CC(OC2c3cc4c(c(O)c3[C@@H]3C[C@@]2(C)OC32C=c3cc[nH]c3=N2)C(=O)c2cccc(O)c2C4=O)OC1C (stereo partly drawn)
T/C [6]: 65 % of control | T/C [7]: 55 % of control

Nc1nc2n[nH]nc2c(=O)[nH]1
T/C (dose: 75.0 mg/kg/injection, vehicle: suspension in saline): 45 % of control | T/C (dose: 150.0 mg/kg/injection, vehicle: suspension in saline): 60 % of control | T/C (dose: 300.0 mg/kg/injection, vehicle: suspension in saline): 22 % of control

O=C(O)CCCc1ccc(N(CCCl)CCCl)cc1
T/C (dose: 0.13 mg/kg/injection, vehicle: Klucel (hydroxypropylcellulose) (HPC)): 93 % of control | T/C (dose: 0.2 mg/kg/injection, vehicle: Klucel (hydroxypropylcellulose) (HPC)): 101 % of control | T/C (dose: 0.3 mg/kg/injection, vehicle: Klucel (hydroxypropylcellulose) (HPC)): 169 % of control | T/C (dose: 12.0 mg/kg/injection, vehicle: saline with Tween-80): 118 % of control | T/C (dose: 18.0 mg/kg/injection, vehicle: saline with Tween-80): 64 % of control | T/C (dose: 27.0 mg/kg/injection, vehicle: saline with Tween-80): 15 % of control

COC(=O)NC1C(C)OC(OC2C/C=C(/C)C3C=CC4C(OC5CC(OC6CC(OC7CC(O)C(O)C(C)O7)C(OC7CC(O)C(OC)C(C)O7)C(C)O6)C(O)C(C)O5)C(C)CC(C)C4C3(C)/C(O)=C3\C(=O)OC4(CC(C)C(CO)=CC4/C=C\2C)C3=O)CC1(C)[N+](=O)[O-] (stereo not drawn)
T/C (dose: 9.38 mg/kg/injection, vehicle: water): 69 % of control | T/C (dose: 18.75 mg/kg/injection, vehicle: water): 58 % of control | T/C [8]: 76 % of control

COc1cccc(Sc2ccc([N+](=O)[O-])c3no[n+]([O-])c23)c1
T/C [9]: 49 % of control | T/C [2]: 86 % of control

Nc1ncnc2c1nc(Cl)n2C1OC2COP(=O)(O)OC2C1O (stereo not drawn)
T/C (dose: 25.0 mg/kg/injection, vehicle: water): 198 % of control | T/C (dose: 50.0 mg/kg/injection, vehicle: water): 85 % of control

Nc1ccc2ccc(N)cc2c1
T/C [10]: 87 % of control | T/C [11]: 111 % of control | T/C (dose: 400.0 mg/kg/injection, vehicle: saline with Tween-80): 55 % of control

CCCCCCCCCCCCCCCCCCOCC(CO)OC (stereo not drawn)
T/C [2]: 47 % of control and 53 % of control | T/C [3]: 56 % of control and 73 % of control

O=C1CN(CO)C(=O)N1CO
T/C [5]: 172 % of control | T/C (dose: 400.0 mg/kg/injection, vehicle: saline): 120 % of control

ClC1(Cl)Cc2ccccc21
T/C [7]: 119 % of control | T/C [10]: 57 % of control | T/C [11]: 119 % of control

S=C(NCNC(=S)c1ccncc1)c1ccncc1
T/C [2]: 420 % of control | T/C [3]: 260 % of control | T/C (dose: 600.0 mg/kg/injection, vehicle: saline with Tween-80): 317 % of control

CN=C(N)N/N=C(\C)c1ccc2sc3ccc(/C(C)=N/NC(N)=NC)cc3c2c1
T/C [9]: 118 % of control | T/C [2]: 95 % of control | T/C [3]: 83 % of control

CO[C@@H]1C2=CC=CC=C[C@H]2n2c(=O)n(C)c(=O)n21
T/C [8]: 223 % of control | T/C (dose: 75.0 mg/kg/injection, vehicle: other): 32 % of control | T/C (dose: 75.0 mg/kg/injection, vehicle: water): 195 % of control | T/C (dose: 150.0 mg/kg/injection, vehicle: other): 74 % of control | T/C (dose: 150.0 mg/kg/injection, vehicle: water): 158 % of control

c1ccc2[nH]c(CN(CCN(Cc3nc4ccccc4[nH]3)Cc3nc4ccccc4[nH]3)Cc3nc4ccccc4[nH]3)nc2c1
T/C (dose: 6.25 mg/kg/injection, vehicle: DMSO): 124 % of control | T/C (dose: 12.5 mg/kg/injection, vehicle: DMSO): 102 % of control | T/C [12]: 157 % of control

CC(=O)C[n+]1ccccc1Sc1ccc(Cl)cc1
T/C (dose: 12.5 mg/kg/injection, vehicle: saline with Tween-80): 107 % of control | T/C [6]: 80 % of control | T/C [7]: 93 % of control | T/C [10]: 79 % of control

COc1cccc2c1C(CO)N1C(C#N)C3CC(C(=O)O)C(C1C2)N3C (stereo not drawn)
T/C (dose: 3.75 mg/kg/injection, vehicle: saline): 24 % of control | T/C (dose: 6.25 mg/kg/injection, vehicle: saline): 32 % of control | T/C (dose: 7.5 mg/kg/injection, vehicle: saline with Tween-80): 64 % of control | T/C (dose: 7.5 mg/kg/injection, vehicle: saline): 73 % of control | T/C (dose: 12.5 mg/kg/injection, vehicle: saline): 76 % of control | T/C (dose: 15.0 mg/kg/injection, vehicle: saline with Tween-80): 57 % of control | T/C (dose: 15.0 mg/kg/injection, vehicle: saline): 59 % of control | T/C [4]: 33 % of control | T/C (dose: 30.0 mg/kg/injection, vehicle: saline with Tween-80): 59 % of control | T/C (dose: 30.0 mg/kg/injection, vehicle: saline): 39 % of control | T/C [5]: 52 % of control | T/C (dose: 60.0 mg/kg/injection, vehicle: saline): 17 % of control

C=CCNC(=O)c1ccccc1SC(C)=O
T/C [9]: 104 % of control | T/C [2]: 94 % of control | T/C [3]: 96 % of control | T/C (dose: 450.0 mg/kg/injection, vehicle: saline with Tween-80): 61 % of control

C=Cc1cc(OC)c2c(c1)c(=O)oc1c2cc(OC)c2c(O)ccc(C3OC(C)C(O)C(C)(O)C3O)c21 (stereo not drawn)
T/C (dose: 300.0 mg/kg/injection, vehicle: DMSO): 32 % of control

CCC1(O)C(=O)OCc2c1cc1n(c2=O)Cc2cc3cc4c(cc3nc2-1)OCO4 (stereo not drawn)
T/C (dose: 4.0 mg/kg/injection, vehicle: saline with Tween-80): 6 % of control

c1ccc([Te][Te]c2ccccc2)cc1
T/C (dose: 9.38 mg/kg/injection, vehicle: saline with Tween-80): 71 % of control | T/C (dose: 18.75 mg/kg/injection, vehicle: saline with Tween-80): 59 % of control | T/C [1]: 122 % of control

CC(=O)C[n+]1ccc(C)cc1Sc1ccccc1C
T/C [7]: 112 % of control | T/C [10]: 44 % of control

O=C(Nc1cccc(O)c1)C(Cl)=C(Cl)Cl
T/C (dose: 18.0 mg/kg/injection, vehicle: other): 46 % of control | T/C [12]: 108 % of control | T/C (dose: 30.0 mg/kg/injection, vehicle: other): 50 % of control and 74 % of control | T/C (dose: 50.0 mg/kg/injection, vehicle: DMSO): 18 % of control | T/C (dose: 50.0 mg/kg/injection, vehicle: other): 76 % of control
